This note sets out measurements from ChEMBL document CHEMBL5465560, “Selectivity Literature for EUbOPEN Chemogenomic Library” (2024).

Molecules are shown by their SMILES. Some results are limits rather than exact numbers.

Test [1] concerns the target T1, Serine/threonine-protein kinase Sgk1 (Homo sapiens) (UniProt O00141).
T1 sequence (whole entry): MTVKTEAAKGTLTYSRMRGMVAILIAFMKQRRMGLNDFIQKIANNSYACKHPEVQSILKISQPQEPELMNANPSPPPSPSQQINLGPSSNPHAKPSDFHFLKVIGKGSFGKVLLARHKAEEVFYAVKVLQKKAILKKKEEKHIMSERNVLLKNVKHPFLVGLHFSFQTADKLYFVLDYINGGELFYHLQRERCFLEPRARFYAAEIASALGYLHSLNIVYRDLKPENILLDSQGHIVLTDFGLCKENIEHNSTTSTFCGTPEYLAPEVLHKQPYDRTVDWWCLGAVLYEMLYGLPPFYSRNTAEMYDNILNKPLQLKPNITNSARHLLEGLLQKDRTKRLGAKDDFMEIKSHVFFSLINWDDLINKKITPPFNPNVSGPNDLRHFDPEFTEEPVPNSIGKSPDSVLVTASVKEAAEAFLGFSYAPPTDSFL
The experiment in a line: Selectivity interaction (Kinase panel (Z-LYTE Assay)) EUB0001632a SGK1. Particulars: at 10 µM.

Test [2] addresses T2, Activin receptor type-1B (Homo sapiens) (UniProt P36896).
T2 sequence (whole entry): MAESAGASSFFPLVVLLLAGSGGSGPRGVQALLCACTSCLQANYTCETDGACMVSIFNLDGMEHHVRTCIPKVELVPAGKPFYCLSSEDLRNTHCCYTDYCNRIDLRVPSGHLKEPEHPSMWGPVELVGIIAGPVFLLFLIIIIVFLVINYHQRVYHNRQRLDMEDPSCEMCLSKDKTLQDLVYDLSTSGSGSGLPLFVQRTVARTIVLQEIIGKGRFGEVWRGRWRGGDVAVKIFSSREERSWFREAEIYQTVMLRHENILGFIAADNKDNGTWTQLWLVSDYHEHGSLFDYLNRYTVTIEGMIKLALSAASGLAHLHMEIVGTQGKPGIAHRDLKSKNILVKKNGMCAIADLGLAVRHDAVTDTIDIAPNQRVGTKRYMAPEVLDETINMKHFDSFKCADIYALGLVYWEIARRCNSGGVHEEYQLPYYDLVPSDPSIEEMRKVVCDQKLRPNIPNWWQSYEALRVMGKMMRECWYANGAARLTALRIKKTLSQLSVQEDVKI
Particulars: at 10 µM.

The target of test [3] is Mitogen-activated protein kinase kinase kinase kinase 1 (Homo sapiens) (UniProt Q92918). As to the kind of experiment: Selectivity interaction (KinomeScan (DiscoverX)) EUB0000695a MAP4K1. Particulars: at 100 nM.
Mitogen-activated protein kinase kinase kinase kinase 1 (Homo sapiens), sequence (Q92918 whole entry, looked up): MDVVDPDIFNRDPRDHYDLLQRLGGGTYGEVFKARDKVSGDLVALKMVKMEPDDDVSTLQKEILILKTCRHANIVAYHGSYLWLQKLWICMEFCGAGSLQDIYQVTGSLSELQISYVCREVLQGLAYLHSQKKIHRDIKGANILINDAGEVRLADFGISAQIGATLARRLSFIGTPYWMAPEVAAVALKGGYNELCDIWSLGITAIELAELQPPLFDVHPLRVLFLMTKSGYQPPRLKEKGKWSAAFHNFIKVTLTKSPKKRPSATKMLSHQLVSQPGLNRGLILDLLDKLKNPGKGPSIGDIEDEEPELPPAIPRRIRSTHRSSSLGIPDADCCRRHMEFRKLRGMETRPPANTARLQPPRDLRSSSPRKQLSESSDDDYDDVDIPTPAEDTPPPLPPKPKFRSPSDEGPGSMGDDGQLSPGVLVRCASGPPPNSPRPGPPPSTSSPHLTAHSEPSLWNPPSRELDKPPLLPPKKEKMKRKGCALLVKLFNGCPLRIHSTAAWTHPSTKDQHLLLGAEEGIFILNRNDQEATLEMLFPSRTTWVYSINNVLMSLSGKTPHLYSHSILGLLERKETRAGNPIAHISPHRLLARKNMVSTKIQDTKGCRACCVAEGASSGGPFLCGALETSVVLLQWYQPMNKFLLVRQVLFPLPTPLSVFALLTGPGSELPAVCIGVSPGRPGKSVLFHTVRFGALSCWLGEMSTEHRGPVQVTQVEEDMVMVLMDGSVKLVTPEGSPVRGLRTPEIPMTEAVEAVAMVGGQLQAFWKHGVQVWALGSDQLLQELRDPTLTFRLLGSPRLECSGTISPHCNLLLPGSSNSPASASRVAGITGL
Test [4] addresses T3, Serine/threonine-protein kinase TNNI3K (Homo sapiens) (UniProt Q59H18).
T3 sequence (whole entry): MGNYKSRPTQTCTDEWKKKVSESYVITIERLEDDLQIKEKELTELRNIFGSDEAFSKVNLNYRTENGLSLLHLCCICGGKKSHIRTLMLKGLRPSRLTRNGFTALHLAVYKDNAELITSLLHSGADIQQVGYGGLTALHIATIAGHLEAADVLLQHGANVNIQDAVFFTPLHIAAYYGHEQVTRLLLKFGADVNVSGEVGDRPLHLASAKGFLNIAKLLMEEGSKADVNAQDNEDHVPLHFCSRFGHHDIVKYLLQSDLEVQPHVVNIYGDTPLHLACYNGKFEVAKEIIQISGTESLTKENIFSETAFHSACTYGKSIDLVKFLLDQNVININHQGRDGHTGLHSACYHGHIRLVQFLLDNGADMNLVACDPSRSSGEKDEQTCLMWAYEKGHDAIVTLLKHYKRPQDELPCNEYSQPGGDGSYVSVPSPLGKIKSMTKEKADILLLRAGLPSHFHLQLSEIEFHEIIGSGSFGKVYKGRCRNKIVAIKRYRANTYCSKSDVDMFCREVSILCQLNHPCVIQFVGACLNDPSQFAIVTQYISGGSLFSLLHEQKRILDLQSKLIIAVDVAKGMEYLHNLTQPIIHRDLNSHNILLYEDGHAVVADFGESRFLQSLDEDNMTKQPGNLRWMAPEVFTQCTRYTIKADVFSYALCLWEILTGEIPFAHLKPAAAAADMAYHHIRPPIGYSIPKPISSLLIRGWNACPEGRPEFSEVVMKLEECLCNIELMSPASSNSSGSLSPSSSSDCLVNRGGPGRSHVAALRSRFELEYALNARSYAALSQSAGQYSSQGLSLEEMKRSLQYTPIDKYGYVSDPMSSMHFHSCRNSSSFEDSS
As to the kind of experiment: Selectivity interaction (KinomeScan (DiscoverX)) EUB0000607a TNNI3K. Particulars: at 10 µM.

The target in test [5] is T4, Serine/threonine-protein kinase BRSK1 (Homo sapiens) (UniProt Q8TDC3).
T4 sequence (whole entry): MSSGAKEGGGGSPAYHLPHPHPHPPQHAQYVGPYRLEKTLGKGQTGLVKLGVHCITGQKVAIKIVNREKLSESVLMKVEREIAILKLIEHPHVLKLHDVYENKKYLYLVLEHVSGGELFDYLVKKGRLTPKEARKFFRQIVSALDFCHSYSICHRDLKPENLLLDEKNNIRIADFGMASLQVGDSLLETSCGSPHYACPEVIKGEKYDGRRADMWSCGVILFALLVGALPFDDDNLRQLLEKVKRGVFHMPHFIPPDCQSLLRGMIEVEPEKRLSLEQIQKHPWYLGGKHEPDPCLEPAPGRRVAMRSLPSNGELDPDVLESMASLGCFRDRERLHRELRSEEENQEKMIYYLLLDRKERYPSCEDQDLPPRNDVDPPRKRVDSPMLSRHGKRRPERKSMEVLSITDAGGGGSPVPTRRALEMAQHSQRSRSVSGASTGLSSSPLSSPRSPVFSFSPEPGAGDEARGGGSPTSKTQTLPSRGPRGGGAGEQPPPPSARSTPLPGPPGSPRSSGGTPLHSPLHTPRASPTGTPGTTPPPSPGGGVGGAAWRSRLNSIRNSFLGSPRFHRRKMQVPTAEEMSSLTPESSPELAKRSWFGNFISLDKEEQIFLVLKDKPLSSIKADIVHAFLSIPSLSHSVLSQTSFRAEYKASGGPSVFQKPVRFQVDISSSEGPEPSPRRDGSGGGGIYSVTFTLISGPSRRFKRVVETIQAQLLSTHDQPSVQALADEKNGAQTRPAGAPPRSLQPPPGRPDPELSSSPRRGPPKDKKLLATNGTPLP
The experiment in a line: Selectivity interaction (KinomeScan (DiscoverX)) EUB0000607a BRSK1. The note with it: at 10 µM.

Test [6] addresses Ribosomal protein S6 kinase alpha-6 (Homo sapiens, UniProt Q9UK32). As to the kind of experiment: Selectivity interaction (Kinase panel (Invitrogen)) EUB0000639a RPS6KA6. The note with it: at 200 nM.
Test [7] deals with Cyclin-dependent kinase 5 (Homo sapiens, UniProt Q00535). As to the kind of experiment: Selectivity interaction (KinomeScan (DiscoverX)) EUB0001049a CDK5. Particulars: at 1 µM.
Cyclin-dependent kinase 5, sequence (Q00535 whole entry, looked up): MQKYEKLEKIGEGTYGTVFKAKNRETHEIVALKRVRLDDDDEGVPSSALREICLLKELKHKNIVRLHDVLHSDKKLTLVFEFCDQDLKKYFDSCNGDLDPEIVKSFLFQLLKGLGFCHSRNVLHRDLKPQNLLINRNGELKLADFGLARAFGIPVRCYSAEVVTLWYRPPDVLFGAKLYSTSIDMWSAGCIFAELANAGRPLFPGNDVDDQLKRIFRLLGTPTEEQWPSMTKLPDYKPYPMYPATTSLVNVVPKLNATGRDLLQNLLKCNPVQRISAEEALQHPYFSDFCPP
The target in test [8] is Acetylcholine receptor subunit alpha (Homo sapiens, UniProt P02708). As to the kind of experiment: Selectivity interaction (Nicotinic (CNS) Receptor binding in human IMR32 cells ) EUB0000877a CHRNA1. The format is cell-based, IMR-32.
Acetylcholine receptor subunit alpha, sequence (P02708 whole entry): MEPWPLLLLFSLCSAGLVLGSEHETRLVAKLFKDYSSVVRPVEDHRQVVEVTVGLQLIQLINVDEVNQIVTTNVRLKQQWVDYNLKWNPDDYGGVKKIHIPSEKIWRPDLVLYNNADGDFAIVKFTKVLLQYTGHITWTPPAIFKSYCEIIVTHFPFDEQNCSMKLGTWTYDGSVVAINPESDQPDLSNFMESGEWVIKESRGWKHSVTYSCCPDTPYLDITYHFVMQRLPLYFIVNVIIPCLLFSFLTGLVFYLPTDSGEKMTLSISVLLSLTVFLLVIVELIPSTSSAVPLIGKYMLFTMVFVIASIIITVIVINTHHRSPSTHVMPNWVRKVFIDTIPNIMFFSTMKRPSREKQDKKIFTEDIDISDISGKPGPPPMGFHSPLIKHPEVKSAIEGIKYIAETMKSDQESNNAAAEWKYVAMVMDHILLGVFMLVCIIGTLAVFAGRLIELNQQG
The target of test [9] is Protein kinase C eta type (Homo sapiens) (UniProt P24723). As to the kind of experiment: Selectivity interaction (Millipore kinase profiler) EUB0000124b PRKCH. The note with it: at 10 µM.
Protein kinase C eta type (Homo sapiens), sequence (P24723 whole entry): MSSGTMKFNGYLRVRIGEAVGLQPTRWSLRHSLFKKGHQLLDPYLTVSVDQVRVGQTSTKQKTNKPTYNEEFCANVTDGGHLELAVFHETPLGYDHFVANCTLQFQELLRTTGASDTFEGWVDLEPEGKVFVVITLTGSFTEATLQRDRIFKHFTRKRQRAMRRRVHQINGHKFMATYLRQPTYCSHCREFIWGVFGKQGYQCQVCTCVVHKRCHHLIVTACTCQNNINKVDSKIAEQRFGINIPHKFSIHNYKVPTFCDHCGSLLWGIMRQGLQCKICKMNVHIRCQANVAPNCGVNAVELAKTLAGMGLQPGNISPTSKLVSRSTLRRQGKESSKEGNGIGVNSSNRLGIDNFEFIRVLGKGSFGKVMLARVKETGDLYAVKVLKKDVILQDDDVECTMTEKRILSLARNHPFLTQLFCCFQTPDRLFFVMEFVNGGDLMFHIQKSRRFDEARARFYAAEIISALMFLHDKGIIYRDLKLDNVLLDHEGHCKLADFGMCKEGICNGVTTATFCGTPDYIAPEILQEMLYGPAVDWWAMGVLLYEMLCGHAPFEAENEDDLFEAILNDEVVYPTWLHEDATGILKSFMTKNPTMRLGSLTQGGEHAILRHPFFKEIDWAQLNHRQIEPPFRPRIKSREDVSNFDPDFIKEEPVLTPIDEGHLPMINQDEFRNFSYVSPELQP

Ribosomal protein S6 kinase alpha-6, sequence (Q9UK32 whole entry): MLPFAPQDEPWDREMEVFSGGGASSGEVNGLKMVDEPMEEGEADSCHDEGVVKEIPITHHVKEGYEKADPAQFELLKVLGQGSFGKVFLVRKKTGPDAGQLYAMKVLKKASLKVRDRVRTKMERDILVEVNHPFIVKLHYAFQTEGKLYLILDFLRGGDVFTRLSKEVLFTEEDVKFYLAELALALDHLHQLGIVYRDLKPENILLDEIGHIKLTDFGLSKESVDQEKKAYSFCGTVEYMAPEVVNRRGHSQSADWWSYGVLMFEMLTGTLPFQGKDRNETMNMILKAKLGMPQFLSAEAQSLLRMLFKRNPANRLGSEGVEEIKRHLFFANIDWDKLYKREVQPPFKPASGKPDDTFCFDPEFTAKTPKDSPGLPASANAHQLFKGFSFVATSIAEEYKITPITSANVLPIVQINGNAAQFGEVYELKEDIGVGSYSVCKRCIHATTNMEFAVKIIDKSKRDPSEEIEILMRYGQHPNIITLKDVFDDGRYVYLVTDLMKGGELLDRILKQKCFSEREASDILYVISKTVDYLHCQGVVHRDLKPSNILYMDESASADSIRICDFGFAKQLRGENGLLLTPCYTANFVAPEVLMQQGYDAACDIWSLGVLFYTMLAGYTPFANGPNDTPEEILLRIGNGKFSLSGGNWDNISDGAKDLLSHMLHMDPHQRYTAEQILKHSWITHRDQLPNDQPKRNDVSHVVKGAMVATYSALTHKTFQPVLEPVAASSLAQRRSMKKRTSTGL

In the case of `Cn1cc(-n2cnc3c(NCc4nc5cc(Cl)c(Cl)cc5[nH]4)nc(N4CCOCC4)nc32)cn1`, the % of control in test [1] stood at 28%.
As to `CCN(CC)CCCCNc1ncc2cc(-c3cc(OC)cc(OC)c3)c(NC(=O)NC(C)(C)C)nc2n1`, in [2], the % of control is 100%.
As to `Cc1cc(F)c(C(=O)Nc2cccc(-c3nncn3C(C)C)n2)cc1-n1cnc(C2CC2)c1`, the % of control in test [3] stood at 97%.
Take `CNC(=O)Nc1ccc(-c2nc(N3CC4CCC(C3)O4)c3cnn(C4CCC5(CC4)OCCO5)c3n2)cc1`: the % of control in [4] stood at 59%; in [5], 100%.
For `CC[C@@H]1[C@H](F)C(=O)N[C@@H]1COc1nccc2cc(C(N)=O)c(OC)cc12` [ZIMLOVISERTIB], the % of inhibition in test [6] was -1.29%.
In the case of `COc1cc(Nc2nc(C)cc(-c3cnn4nc(OC)ccc34)n2)cc(C(F)(F)F)c1`, the % of control in test [7] was determined as 89%.
One may read the IC50 as the concentration at which inhibition is half-maximal. In test [8], `CCC(=O)N1CC[C@H](Nc2ncnc3c2CN(c2cnc(OC)c(C(F)(F)F)c2)CC3)C1` [LENIOLISIB] displayed an IC50 of more than 30 µM.
Consider `CC(=O)Nc1cccc(-n2c(=O)n(C3CC3)c(=O)c3c(Nc4ccc(I)cc4F)n(C)c(=O)c(C)c32)c1`, for which the % of control in test [9] stood at 107%.
